Tested on: A375 multi-cell spheroids with HUVEC/MSC, viability
Assay: Anticancer human tumor A375 cell line growth inhibition [GQUAD];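 note: spheroids exposed to compounds for seven days before readout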
Conditions: for IC50: curve of first compound; for viability, T/C: stronger effect = lower value; active = viability on the fitted dose curve at most 10% of control; inactive = the rest
How it was run: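 Multi-cell-type spheroids of tumor cells with HUVEC and mesenchymal stem cells, treated with drug combinations. Concentrations descend in half-log steps from near clinical Cmax, or from 10 microM where Cmax is unknown; viability read-out.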

[1] = second compound 0.0316 µM, first compound 0.0316 µM
[2] = second compound 0.0316 µM, first compound 0.1 µM
[3] = second compound 0.0316 µM, first compound 0.316 µM
[4] = second compound 0.0316 µM, first compound 1 µM
[5] = second compound 0.0316 µM, first compound 3.16 µM
[6] = second compound 0.0316 µM, first compound 10 µM
[7] = second compound 0.1 µM, first compound 0.0316 µM
[8] = second compound 0.1 µM, first compound 0.1 µM
[9] = second compound 0.1 µM, first compound 0.316 µM
[10] = second compound 0.1 µM, first compound 1 µM
[11] = second compound 0.1 µM, first compound 3.16 µM
[12] = second compound 0.1 µM, first compound 10 µM
[13] = second compound 0.316 µM, first compound 0.0316 µM
[14] = second compound 0.316 µM, first compound 0.1 µM
[15] = second compound 0.316 µM, first compound 0.316 µM
[16] = second compound 0.316 µM, first compound 1 µM
[17] = second compound 0.316 µM, first compound 3.16 µM
[18] = second compound 0.316 µM, first compound 10 µM
[19] = second compound 1 µM, first compound 0.0316 µM
[20] = second compound 1 µM, first compound 0.1 µM
[21] = second compound 1 µM, first compound 0.316 µM
[22] = second compound 1 µM, first compound 1 µM
[23] = second compound 1 µM, first compound 3.16 µM
[24] = second compound 1 µM, first compound 10 µM
[25] = second compound 3.16 µM, first compound 0.0316 µM
[26] = second compound 3.16 µM, first compound 0.1 µM
[27] = second compound 3.16 µM, first compound 0.316 µM
[28] = second compound 3.16 µM, first compound 1 µM
[29] = second compound 3.16 µM, first compound 3.16 µM
[30] = second compound 3.16 µM, first compound 10 µM
[31] = second compound 10 µM, first compound 0.0316 µM
[32] = second compound 10 µM, first compound 0.1 µM
[33] = second compound 10 µM, first compound 0.316 µM
[34] = second compound 10 µM, first compound 1 µM
[35] = second compound 10 µM, first compound 3.16 µM
[36] = second compound 10 µM, first compound 10 µM

C#Cc1c(F)ccc2cc(O)cc(-c3ncc4c(N5CC6CCC(C5)N6)nc(OCC56CCCN5CC(F)C6)nc4c3F)c12 (stereo not drawn) + CN(C)c1ccc(Nc2c3ccc(NC(=O)CCN4CCCC4)cc3nc3cc(NC(=O)CCN4CCCC4)ccc23)cc1
> 10 µM: IC50 (second compound 0.0316 µM) | IC50 (second compound 0.1 µM) | IC50 (second compound 0.316 µM) | IC50 (second compound 1 µM) | IC50 (second compound 3.16 µM) | IC50 (second compound 10 µM)
inactive: viability, T/C [1] 111% | viability, T/C [2] 98.5% | viability, T/C [3] 101% | viability, T/C [4] 108% | viability, T/C [5] 106% | viability, T/C [6] 112% | viability, T/C [7] 104% | viability, T/C [8] 103% | viability, T/C [9] 105% | viability, T/C [10] 108% | viability, T/C [11] 107% | viability, T/C [12] 107% | viability, T/C [13] 99.5% | viability, T/C [14] 98.4% | viability, T/C [15] 99.3% | viability, T/C [16] 109% | viability, T/C [17] 102% | viability, T/C [18] 98.6% | viability, T/C [19] 106% | viability, T/C [20] 98% | viability, T/C [21] 99.4% | viability, T/C [22] 109% | viability, T/C [23] 107% | viability, T/C [24] 98.1% | viability, T/C [25] 103% | viability, T/C [26] 98.7% | viability, T/C [27] 104% | viability, T/C [28] 97.2% | viability, T/C [29] 102% | viability, T/C [30] 103% | viability, T/C [31] 96.6% | viability, T/C [32] 102% | viability, T/C [33] 96.2% | viability, T/C [34] 96.3% | viability, T/C [35] 102% | viability, T/C [36] 102%

CC(C)(O)C1CCC(Nc2ccc3ncc(-c4cccc(C(F)(F)F)c4)n3n2)CC1 (stereo not drawn) + CN(C)c1ccc(Nc2c3ccc(NC(=O)CCN4CCCC4)cc3nc3cc(NC(=O)CCN4CCCC4)ccc23)cc1
inactive: viability, T/C [1] 95.9% | viability, T/C [2] 93% | viability, T/C [3] 95.7% | viability, T/C [4] 104% | viability, T/C [5] 84% | viability, T/C [6] 92.9% | viability, T/C [7] 93.1% | viability, T/C [8] 92.6% | viability, T/C [9] 96.6% | viability, T/C [10] 90.6% | viability, T/C [11] 79.2% | viability, T/C [12] 88.5% | viability, T/C [13] 99% | viability, T/C [14] 91.2% | viability, T/C [15] 88.9% | viability, T/C [16] 104% | viability, T/C [17] 80.6% | viability, T/C [18] 92.8% | viability, T/C [19] 96.7% | viability, T/C [20] 92.4% | viability, T/C [21] 97.7% | viability, T/C [22] 95.1% | viability, T/C [23] 75.9% | viability, T/C [24] 85% | viability, T/C [25] 93.7% | viability, T/C [26] 99.2% | viability, T/C [27] 97.7% | viability, T/C [28] 98.1% | viability, T/C [29] 49.6% | viability, T/C [30] 68.7% | viability, T/C [31] 94.6% | viability, T/C [32] 91.2% | viability, T/C [33] 96.7% | viability, T/C [34] 84.9% | viability, T/C [35] 25.9% | viability, T/C [36] 40.9%
10 µM: IC50 (second compound 3.16 µM)
> 10 µM: IC50 (second compound 0.0316 µM) | IC50 (second compound 0.1 µM) | IC50 (second compound 0.316 µM) | IC50 (second compound 1 µM)
2.18 µM: IC50 (second compound 10 µM)

COc1ncnc(C2CC2)c1-c1ncc2cnn(Cc3ccc(-c4nc(C(F)(F)F)cn4C(C)C)cc3)c2n1 + CN(C)c1ccc(Nc2c3ccc(NC(=O)CCN4CCCC4)cc3nc3cc(NC(=O)CCN4CCCC4)ccc23)cc1
> 10 µM: IC50 (second compound 0.0316 µM) | IC50 (second compound 0.1 µM) | IC50 (second compound 0.316 µM) | IC50 (second compound 1 µM) | IC50 (second compound 3.16 µM) | IC50 (second compound 10 µM)
inactive: viability, T/C [1] 108% | viability, T/C [2] 100% | viability, T/C [3] 115% | viability, T/C [4] 104% | viability, T/C [5] 108% | viability, T/C [6] 104% | viability, T/C [7] 105% | viability, T/C [8] 105% | viability, T/C [9] 102% | viability, T/C [10] 103% | viability, T/C [11] 105% | viability, T/C [12] 114% | viability, T/C [13] 103% | viability, T/C [14] 110% | viability, T/C [15] 110% | viability, T/C [16] 101% | viability, T/C [17] 107% | viability, T/C [18] 105% | viability, T/C [19] 109% | viability, T/C [20] 91% | viability, T/C [21] 101% | viability, T/C [22] 112% | viability, T/C [23] 104% | viability, T/C [24] 102% | viability, T/C [25] 109% | viability, T/C [26] 102% | viability, T/C [27] 109% | viability, T/C [28] 104% | viability, T/C [29] 106% | viability, T/C [30] 104% | viability, T/C [31] 93% | viability, T/C [32] 101% | viability, T/C [33] 94% | viability, T/C [34] 98.9% | viability, T/C [35] 96.1% | viability, T/C [36] 92.8%

CC(C)n1c(=O)n(C)c2cnc3cc(F)c(-c4ccc(OCCCN5CCCCC5)nc4)cc3c21 + Cc1[nH]c2ccc(F)cc2c1-c1nc2c3cccnc3c3ncccc3c2[nH]1
5.04 µM: IC50 (second compound 3.16 µM)
9.55 µM: IC50 (second compound 10 µM)
inactive: viability, T/C [1] 92.3% | viability, T/C [2] 93.3% | viability, T/C [3] 91.1% | viability, T/C [4] 96.3% | viability, T/C [5] 109% | viability, T/C [6] 91.1% | viability, T/C [7] 98.2% | viability, T/C [8] 89.7% | viability, T/C [9] 97.2% | viability, T/C [10] 95.9% | viability, T/C [11] 113% | viability, T/C [12] 96.3% | viability, T/C [13] 92.5% | viability, T/C [14] 91.8% | viability, T/C [15] 112% | viability, T/C [16] 96.7% | viability, T/C [17] 106% | viability, T/C [18] 90% | viability, T/C [19] 89.9% | viability, T/C [20] 98.1% | viability, T/C [21] 97.8% | viability, T/C [22] 96% | viability, T/C [23] 116% | viability, T/C [24] 93.7% | viability, T/C [25] 83.5% | viability, T/C [26] 80.2% | viability, T/C [27] 92.7% | viability, T/C [28] 73% | viability, T/C [29] 65.2% | viability, T/C [30] 29.3% | viability, T/C [31] 106% | viability, T/C [32] 101% | viability, T/C [33] 101% | viability, T/C [34] 88.4% | viability, T/C [35] 81.2% | viability, T/C [36] 47.7%
> 10 µM: IC50 (second compound 0.0316 µM) | IC50 (second compound 0.1 µM) | IC50 (second compound 0.316 µM) | IC50 (second compound 1 µM)

From PubChem BioAssay AID2060485 (Molecular Pharmacology Branch, DTP, NCI, 2025)
